The values below come from paper PMC8692993, “PPARα and PPARγ activation is associated with pleural mesothelioma invasion but therapeutic inhibition is ineffective” (iScience, 2021).

Molecules are shown by their SMILES. Where two headings read alike, the source gives them in different places. Some results are limits rather than exact numbers.

One test concerns the target T1, PPARγ (Homo sapiens, UniProt P37231).
T1 sequence (P37231 238-503 limits assumed): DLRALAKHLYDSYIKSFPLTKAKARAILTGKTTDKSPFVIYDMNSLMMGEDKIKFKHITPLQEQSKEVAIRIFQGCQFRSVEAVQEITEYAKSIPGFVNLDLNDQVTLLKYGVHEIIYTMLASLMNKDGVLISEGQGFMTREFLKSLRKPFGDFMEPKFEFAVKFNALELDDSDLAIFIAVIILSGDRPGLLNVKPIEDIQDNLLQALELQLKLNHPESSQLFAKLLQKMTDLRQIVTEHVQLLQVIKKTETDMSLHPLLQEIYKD
More on the design: expressed in transfected cells; host or cells: HG5LN (HeLa-derived, GAL4RE-luciferase); method as in Goldstein et al., 2017. The settings on record: an IC50 value was not reported, ref Goldstein et al., 2017, read-out: Functionality, Lit. IC50; cited from earlier work.

The target of test [1] is T2, PPARα (Homo sapiens, UniProt Q07869).
T2 sequence (Q07869 239-466 limits assumed): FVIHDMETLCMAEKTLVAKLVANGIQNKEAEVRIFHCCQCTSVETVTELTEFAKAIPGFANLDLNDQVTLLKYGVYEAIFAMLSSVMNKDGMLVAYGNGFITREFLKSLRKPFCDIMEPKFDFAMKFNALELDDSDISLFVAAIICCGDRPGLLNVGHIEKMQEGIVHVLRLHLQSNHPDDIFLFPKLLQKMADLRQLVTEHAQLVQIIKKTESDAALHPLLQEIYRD
On the set-up: expressed in transfected cells; host or cells: HG5LN (HeLa-derived, GAL4RE-luciferase); method as in Xu et al., 2002. The settings on record: inhibition of agonism by 10 nM GW409544, ref Xu et al., 2002, read-out: Functionality, Lit. IC50; cited from earlier work.

Test [2] addresses T2, PPARα. The experiment in a line: HG5LN reporter cell assay, PPARα-mediated transcription. The class given is cell-based. On the set-up: expressed in transfected cells; host or cells: HG5LN (HeLa-derived, GAL4RE-luciferase). An excerpt:
Nuclear receptors, including PPARα and γ, are ligand-inducible transcription factors that form heterodimers with retinoid X receptors and bind to specific DNA sites located in the enhancer/promoter region of target genes, releasing co-repressors and/or recruiting co-activators ([Wang, 2010]). We therefore assessed the functional consequences of the ligands on PPARα and γ-mediated transcriptional activation in reporter cell lines. These cell lines were generated as previously reported by a two-step transfection procedure ([Seimandi et al., 2005]). First, a stable cell line, HG5LN, expressing the reporter gene (GAL4RE-luciferase) was developed from the HeLa cell line. These cells were then transfected with a plasmid expressing the C-terminal ligand-binding domain of PPARα or γ fused to GAL4 DNA-binding domain. The parental HG5LN cells were used as a control to test non-specific modulation of luciferase expression by the small molecules investigated (Figure S4A). The HG5LN PPAR reporter cells therefore allow comparison of the functional activity at, and selectivity of different ligands for, PPARα and γ. […] As expected ([Abu Aboud et al., 2015]), GW6471 potently antagonized PPARα (Figure 4E and Table 1).
A transfected […] cell line HG5LN was used ([Balaguer et al., 2001]). These cells were cultured in Dubecco's modified Eagle's medium (DMEM-F12 Thermo Fisher Scientific) with phenol red and supplemented with 5% foetal calf serum, incubated at 37°C in a 5% CO2/95% air-humidified atmosphere. Luciferase assays were performed in DMEM-F12 (Thermo Fisher Scientific) without phenol red and supplemented with 5% dextran-coated charcoal-stripped FCS (test culture medium), puromycin (Thermo Fisher Scientific) 0.5 μg/mL and geneticin (Thermo Fisher Scientific) 1 mg/mL. Cells were seeded at a density of 5 x 10^4 cells/well and incubated for 8 h at 37°C in a 96-well plate white opaque tissue culture plates (Becton-Dickinson). Tested compounds were added in serial dilutions and incubated for 16 h at 37°C. After incubation, the medium containing the effectors was carefully removed and replaced by culture medium containing 3 x 10^−4 mol/L luciferin (Sigma Chemicals). After 5 min incubation at room temperature, the 96-well plate was then read with a Microbeta Wallac luminometer and the luminescence was measured in the living cells for 2 s. All experiments were performed in quadruplicate.

For the molecule `CCC(=O)NC[C@H](Cc1ccc(OCCc2nc(-c3ccccc3)oc2C)cc1)N/C(C)=C\C(=O)c1ccc(C(F)(F)F)cc1` [GW6471], the half-maximal inhibitory concentration (IC50) (commonly the midpoint of a concentration-inhibition curve) is < 1000 nM on PPARγ; 240 nM at PPARα [1]; 254 ± 96 nM on PPARα [2] (inhibition of agonism by 10 nM GW7647, 16 h incubation, mean of 3 experiments ± SEM). For the same molecule, the “Functionality, Type” value on PPARα [2] was “antagonist”.
